Experimental data reported in ChEMBL document CHEMBL1649430, “Antimicrobial susceptibility of Mycoplasma pneumoniae isolates and molecular analysis of macrolide-resistant strains from Shanghai, China” (2009).
Values after ≈ are worked out from the molar mass of the structure shown.

Tests used:
[1] = tested on: Mycoplasmoides pneumoniae; assay: Antimicrobial activity against macrolide-resistant Mycoplasma pneumoniae clinical isolates obtained from bronchial aspirations expressing 23S rRNA A2063G mutant gene and P1 RFLP type I gene by broth microdilution method; format: functional
[2] = tested on: Mycoplasmoides pneumoniae; assay: Antimicrobial activity against Mycoplasma pneumoniae ATCC 15531 by broth microdilution method

Compound	MIC [1]	MIC50 [1]	MIC90 [1]	MIC [2]
CC[C@H]1OC(=O)[C@H](C)[C@@H](O[C@H]2C[C@@](C)(OC)[C@@H](O)[C@H](C)O2)[C@H](C)[C@@H](O[C@@H]2O[C@H](C)C[C@H](N(C)C)[C@H]2O)[C@](C)(OC)C[C@@H](C)C(=O)[C@H](C)[C@@H](O)[C@]1(C)O [CLARITHROMYCIN]	≤ 0.007 µg/mL	128 µg/mL (≈ 171 µM)	> 128 µg/mL	≤ 0.007 µg/mL
CN(C)[C@@H]1C(O)=C(C(N)=O)C(=O)[C@@]2(O)C(O)=C3C(=O)c4c(O)cccc4[C@@](C)(O)[C@H]3C[C@@H]12 [TETRACYCLINE]	0.015 µg/mL (≈ 0.0338 µM)	0.06 µg/mL (≈ 0.135 µM)	0.125 µg/mL (≈ 0.281 µM)	0.06 µg/mL (≈ 0.135 µM)
O=C(O)c1cn(C2CC2)c2cc(N3CCNCC3)c(F)cc2c1=O [CIPROFLOXACIN]	–	–	–	0.25 µg/mL (≈ 0.754 µM)
C[C@H]1COc2c(N3CCN(C)CC3)c(F)cc3c(=O)c(C(=O)O)cn1c23.C[C@H]1COc2c(N3CCN(C)CC3)c(F)cc3c(=O)c(C(=O)O)cn1c23.O [LEVOFLOXACIN]	0.015 µg/mL	0.25 µg/mL	0.5 µg/mL	0.25 µg/mL
CC[C@H]1OC(=O)[C@H](C)[C@@H](O[C@H]2C[C@@](C)(OC)[C@@H](O)[C@H](C)O2)[C@H](C)[C@@H](O[C@@H]2O[C@H](C)C[C@H](N(C)C)[C@H]2O)[C@](C)(O)C[C@@H](C)C(=O)[C@H](C)[C@@H](O)[C@]1(C)O [ERYTHROMYCIN]	≤ 0.007 µg/mL	> 128 µg/mL	> 128 µg/mL	≤ 0.007 µg/mL
CN(C)c1ccc(O)c2c1C[C@H]1C[C@H]3[C@H](N(C)C)C(O)=C(C(N)=O)C(=O)[C@@]3(O)C(O)=C1C2=O [MINOCYCLINE]	≤ 0.007 µg/mL	0.06 µg/mL (≈ 0.131 µM)	0.125 µg/mL (≈ 0.273 µM)	0.06 µg/mL (≈ 0.131 µM)
CO[C@@H]1[C@@H](O[C@@H]2O[C@H](C)[C@@H](O[C@H]3C[C@@](C)(O)[C@@H](OC(=O)CC(C)C)[C@H](C)O3)[C@H](N(C)C)[C@H]2O)[C@@H](CC=O)C[C@@H](C)[C@@H](O)/C=C/C=C/C[C@@H](C)OC(=O)C[C@H]1OC(C)=O [JOSAMYCIN]	≤ 0.007 µg/mL	2 µg/mL (≈ 2.42 µM)	4 µg/mL (≈ 4.83 µM)	≤ 0.007 µg/mL
COc1c(N2C[C@@H]3CCCN[C@@H]3C2)c(F)cc2c(=O)c(C(=O)O)cn(C3CC3)c12 [MOXIFLOXACIN]	–	–	–	0.06 µg/mL (≈ 0.149 µM)
CC[C@H]1OC(=O)[C@H](C)[C@@H](O[C@H]2C[C@@](C)(OC)[C@@H](O)[C@H](C)O2)[C@H](C)[C@@H](O[C@@H]2O[C@H](C)C[C@H](N(C)C)[C@H]2O)[C@](C)(O)C[C@@H](C)CN(C)[C@H](C)[C@@H](O)[C@]1(C)O [AZITHROMYCIN]	≤ 0.007 µg/mL	16 µg/mL (≈ 21.4 µM)	64 µg/mL (≈ 85.4 µM)	≤ 0.007 µg/mL
C[C@H]1c2cccc(O)c2C(=O)C2=C(O)[C@]3(O)C(=O)C(C(N)=O)=C(O)[C@@H](N(C)C)[C@@H]3[C@@H](O)[C@@H]21.O [DOXYCYCLINE]	≤ 0.007 µg/mL	0.06 µg/mL	0.125 µg/mL	0.03 µg/mL
